In brackets after ≈: the same amount, converted by molar mass. Marks after values point to notes of the source that are not given here.
Legend:
[1] = Solubility studies in water, FaSSIF, FeSSIF and FaSSGF (excess solids in 5 mL medium at 37° C., HPLC; pH, XRPD and NMR of remaining material); assay type: physicochemical; details: for solubility at 30 min / solubility at 120 min / solubility at 24 h: 37 °C, thermodynamic from solid; for pH: pH of solubility sample; for Solubility / solubility at 24 hours in FeSSIF: 37° C.; for solubility at 24 hours in FeSSIF: comparison among the tested forms
Experimental: Simulated fluids were sourced from and prepared according to biorelevant.com using their FaSSIF/FeSSIF/FaSSGF Powder (v1, formerly known as SIF Powder). Samples were prepared by adding excess solids to 5 mL of medium at 37° C. Samples were pulled and filtered at 30 minutes, 120 minutes, and 24 hours and tested for solution concentration using the HPLC parameters described below in Table 13.
The pH of the samples at each timepoint was also measured; pH paper was used at 30 minutes and 120 minutes due to the small sample size, and a pH meter was used at 24 hours. The remaining material from all trials was analyzed by XRPD after 24 hours to determine if any polymorphic form changes had taken place. The remaining material from trials in water was analyzed by NMR after 24 hours to determine if disassociation had taken place.

[2] = Stability studies at 40° C./75% RH (HPLC); assay type: physicochemical; details: for stability / degradation over time: Time 0, 1 week, 2 weeks, 4 weeks
Experimental: Stability studies of compound A, Form B, Compound 1, Form B, Compound 2, Form A, Compound 3, Form B, and Compound 4, Form A was carried out at 40° C./75% RH. Samples were stored in loosely capped vials in a chamber containing a saturated NaCl solution to achieve approximately 75% RH within the chamber. The chamber was stored in a 40° C. oven. Samples were analyzed at Time 0, 1 week, 2 weeks, and 4 weeks using the HPLC parameters described above in Table 13.

[3] = FaSSGF, fassgf or other biorelevant, 30 minutes
[4] = FaSSGF, fassgf or other biorelevant, 120 minutes
[5] = FaSSGF, fassgf or other biorelevant, 24 hours

| Compound | solubility at 30 min [1, 3] [µg/mL] | solubility at 120 min [1, 4] [µg/mL] | solubility at 24 h [1, 5] [µg/mL] | pH ([1]; FaSSGF, 30 minutes, pH paper) | pH ([1]; FaSSGF, 120 minutes, pH paper) | pH ([1]; FaSSGF, 24 hours, pH meter) | pH ([1]; FaSSIF, 30 minutes, pH paper) | pH ([1]; FaSSIF, 120 minutes, pH paper) | pH ([1]; FaSSIF, 24 hours, pH meter) | pH ([1]; FeSSIF, 30 minutes, pH paper) | pH ([1]; FeSSIF, 120 minutes, pH paper) | pH ([1]; FeSSIF, 24 hours, pH meter) | pH ([1]; Water, 30 minutes, pH paper) | pH ([1]; Water, 120 minutes, pH paper) | pH ([1]; Water, 24 hours, pH meter) | % Area ([2]; 1 Week, HPLC) [% Area] | % Area ([2]; 2 Weeks, HPLC) [% Area] | % Area ([2]; 4 Weeks, HPLC) [% Area] | stability / degradation over time ([2]; HPLC) | % Area ([2]; Time 0, HPLC) [% Area] | other results |
| --- | --- | --- | --- | --- | --- | --- | --- | --- | --- | --- | --- | --- | --- | --- | --- | --- | --- | --- | --- | --- | --- |
| CC(C)c1cnn2c(N[C@@H]3CCc4[nH]c5ccccc5c4C3)nc(-c3cncc(F)c3)nc12.CCS(=O)(=O)O [Compound 1 Form B] | < 0.1 | < 0.1 | < 0.1 | 1.5 | 1.5 | 1.2 | 6 | 6 | 6.2 | 5 | 5 | 4.8 | 4.5 | 4.5 | 3.4 | 99.59 | 99.53 | 99.46 | equally stable | 99.90 | solubility at 30 min ([1]; FaSSIF, 30 minutes): 45 µg/mL; solubility at 120 min ([1]; FaSSIF, 120 minutes): 34 µg/mL; solubility at 24 h ([1]; FaSSIF, 24 hours): 18 µg/mL; solubility at 30 min ([1]; FeSSIF, 30 minutes): 58 µg/mL; solubility at 120 min ([1]; FeSSIF, 120 minutes): 56 µg/mL; solubility at 24 h ([1]; FeSSIF, 24 hours): 63 µg/mL; solubility at 30 min ([1]; water, 30 minutes): < 0.1 µg/mL; solubility at 120 min ([1]; water, 120 minutes): < 0.1 µg/mL; solubility at 24 h ([1]; water, 24 hours): < 0.1 µg/mL |
| CC(C)c1cnn2c(N[C@@H]3CCc4[nH]c5ccccc5c4C3)nc(-c3cncc(F)c3)nc12 [Compound 2 Form A] | < 0.1 | < 0.1 | < 0.1 |  |  | 1.2 | 6 | 6 | 5.0 | 5 | 5 | 4.7 | 3.5 | 4 | 2.9 | 99.20 | 98.30 | 98.58 | fairly stable | 99.87 | Solubility ([1]; FaSSIF, 30 minutes): 78 µg/mL (≈ 177 µM); Solubility ([1]; FaSSIF, 120 minutes): 40 µg/mL (≈ 90.6 µM); Solubility ([1]; FaSSIF, 24 hours): 14 µg/mL (≈ 31.7 µM); Solubility ([1]; FeSSIF, 30 minutes): 58 µg/mL (≈ 131 µM); Solubility ([1]; FeSSIF, 120 minutes): 160 µg/mL (≈ 362 µM); Solubility ([1]; FeSSIF, 24 hours): 120 µg/mL (≈ 272 µM); solubility at 24 hours in FeSSIF ([1]; FeSSIF, 24 hours): highest solubility; solubility at 30 min ([1]; water, 30 minutes): < 0.1 µg/mL; solubility at 120 min ([1]; water, 120 minutes): < 0.1 µg/mL; solubility at 24 h ([1]; water, 24 hours): < 0.1 µg/mL; loss of area over four weeks ([2]; four weeks, HPLC): ~1.5 % area |
| CC(C)c1cnn2c(N[C@@H]3CCc4[nH]c5ccccc5c4C3)nc(-c3cncc(F)c3)nc12.CS(=O)(=O)O [Compound 3 Form B] | < 0.1 | < 0.1 | < 0.1 | 1.5 | 1.5 | 1.2 | 6 | 6 | 5.7 | 5 | 5 | 4.4 | 4 | 4 | 2.4 | 91.60 | 69.61 | 16.23 | significant degradation was observed over time | 99.88 | solubility at 30 min ([1]; FaSSIF, 30 minutes): 65 µg/mL; solubility at 120 min ([1]; FaSSIF, 120 minutes): 34 µg/mL; solubility at 24 h ([1]; FaSSIF, 24 hours): 16 µg/mL; solubility at 24 hours in FeSSIF ([1]; FeSSIF, 24 hours): highest solubility; solubility at 30 min ([1]; FeSSIF, 30 minutes): 27 µg/mL; solubility at 120 min ([1]; FeSSIF, 120 minutes): 43 µg/mL; solubility at 24 h ([1]; FeSSIF, 24 hours): 160 µg/mL; solubility at 30 min ([1]; water, 30 minutes): < 0.1 µg/mL; solubility at 120 min ([1]; water, 120 minutes): < 0.1 µg/mL; solubility at 24 h ([1]; water, 24 hours): < 0.1 µg/mL; solid state of the solids at the end of the study ([2]; end of the study): lost all crystallinity and became x-ray amorphous |
| CC(C)c1cnn2c(N[C@@H]3CCc4[nH]c5ccccc5c4C3)nc(-c3cncc(F)c3)nc12 [Compound 4 Form A] |  |  |  | 1.5 | 1.5 | 1.1 | 6 | 5.5 | 1.9 | 5 | 4.5 | 4.4 | 4.5 | 3 | 1.5 | 94.31 | 94.20 | 99.37 | exhibited degradation at 1 and 2 weeks, but the degradant peaks were no longer present at 4 weeks | 99.77 | Solubility ([1]; FaSSGF, 30 minutes): <0.1 µg/mL; Solubility ([1]; FaSSGF, 120 minutes): <0.1 µg/mL; Solubility ([1]; FaSSGF, 24 hours): <0.1 µg/mL; Solubility ([1]; FaSSIF, 30 minutes): 71 µg/mL (≈ 161 µM); Solubility ([1]; FaSSIF, 120 minutes): 38 µg/mL (≈ 86.1 µM); Solubility ([1]; FaSSIF, 24 hours): 25 µg/mL (≈ 56.6 µM); Solubility ([1]; FeSSIF, 30 minutes): 48 µg/mL (≈ 109 µM); Solubility ([1]; FeSSIF, 120 minutes): 110 µg/mL (≈ 249 µM); Solubility ([1]; FeSSIF, 24 hours): 33 µg/mL (≈ 74.7 µM); Solubility ([1]; Water, 30 minutes): <0.1 µg/mL; Solubility ([1]; Water, 120 minutes): <0.1 µg/mL; Solubility ([1]; Water, 24 hours): <0.1 µg/mL |
| CC(C)c1cnn2c(N[C@@H]3CCc4[nH]c5ccccc5c4C3)nc(-c3cncc(F)c3)nc12 [Compound A Form B, (3R)—N-[2-(5-fluoro-3-pyridyl)-8-isopropyl-pyrazolo[1,5-a][1,3,5]triazin-4-yl]-2,3,4,9-tetrahydro-1H-carbazol-3-amine] |  |  |  |  |  |  | 6 | 6 | 6.4 | 5 | 5 | 4.8 |  | 4.5 | 7.7 | 99.22 | 99.05 | 99.58 | equally stable |  | Solubility ([1]; FaSSGF, 30 minutes): <0.1 µg/mL; Solubility ([1]; FaSSGF, 120 minutes): <0.1 µg/mL; Solubility ([1]; FaSSGF, 24 hours): <0.1 µg/mL; Solubility ([1]; FaSSIF, 30 minutes): 4.9 µg/mL (≈ 11.1 µM); Solubility ([1]; FaSSIF, 120 minutes): 11 µg/mL (≈ 24.9 µM); Solubility ([1]; FaSSIF, 24 hours): 9.5 µg/mL (≈ 21.5 µM); Solubility ([1]; FeSSIF, 30 minutes): <0.1 µg/mL; Solubility ([1]; FeSSIF, 120 minutes): 27 µg/mL (≈ 61.2 µM); Solubility ([1]; FeSSIF, 24 hours): 21 µg/mL (≈ 47.6 µM); Solubility ([1]; Water, 30 minutes): <0.1 µg/mL; Solubility ([1]; Water, 120 minutes): <0.1 µg/mL; Solubility ([1]; Water, 24 hours): <0.1 µg/mL; % Area ([2]; Time 0, HPLC, 1 mg/mL): 99.62* % Area |
